Entries after “also recorded” stand apart in the source; their conditions may differ. Like-named read-outs stand apart in the source and are kept apart here.
Experiments:
[1] = Pharmacokinetic study, plasma (IV, PO, IP); type: in vivo, C57BL/6J mice; conditions: for half-life / Tmax / bioavailability / AUC: plasma; for AUC: NCA
Description: (§1) Adult male C57BL/6J mice were purchased from Jackson Laboratories (Bar Harbor, ME). The animals were housed in polyethylene cages and given food and water ad libitum. Animals were administered 29 by intravenous, oral gavage or intraperitoneal (IV, PO or IP injection). Two groups of mice (n = 3/group) were sampled three times each via the saphenous vein. Whole blood samples were collected into heparinized pipet tips, centrifuged at 4300×g for 2 min to isolate plasma and transferred onto dry ice. Plasma samples were stored at − 80 °C until processing. Separately, for brain biodistribution studies, five mice per time-point were administered 29 via the IP route and a single blood sample was collected from each animal via intracardiac puncture prior to perfusing with ice-cold saline for 5 min before removing the brain. All animal procedures were conducted in accordance with The Guide for the Care and Use of Laboratory Animals (National Academic Press, 1996) and approved by the IACUC (Institutional Animal Care and Use Committee) at the University of Kentucky and at the Rockefeller University.
Experimental plasma samples were thawed at 37 °C for 3 min and vortex mixed. […] Samples were vortex mixed, then treated with 4× volume (60 µL) of 0.1% formic acid in methanol to precipitate proteins. The samples were vortex mixed (5 s) then centrifuged at 13,000×g for 15 min at 4 °C. The resulting supernatants were collected into amber HPLC vials fitted with 200 µL glass inserts and immediately analyzed for analyte content by LC/MS–MS.
(§2) For the analysis of total amount of 29 in the plasma samples, calibration curve was generated with 29 drug spiked to mouse blank plasma. Calibrators (0.25–1000 ng/mL) were prepared by the addition of 5 µL of appropriate spiking solution into 100 µL blank plasma followed by vortex mixing. Quality control samples (0.75, 25, 500, 850 ng/mL) were prepared from an independent second stock in a similar fashion. For the analysis of 29 in brain tissue samples, calibration curve was generated with 29 drug spiked to blank mouse brain tissue homogenate using a calibration curve (0.5–372 ng/mL) and quality control samples (0.75, 13.3, 25, 266 ng/mL). The limit of quantitation for plasma was 0.4 ng/mL and for brain tissue 1 ng/mL.
(§3) Analyte and internal standard contained in 4 µL sample injections were eluted from a Waters XBridge C18 (3.5µ, 4.6 × 150 mm; oven temp. 40 °C) analytical column with a 0.1% formic acid in water (Mobile Phase-A): 0.1% formic acid in acetonitrile (Mobile Phase-B) gradient. […] The 90% Mobile Phase-B was maintained for 2.5 min before returning to the initial 35% over a 0.1 min linear ramp. […] The total run time was 7.5 min. Positive-mode ESI Turbo V® source and MS gas, temperature and voltage potential settings were based on optimized parameters determined prior to analysis using infusions of 1000 ng/mL drug standards in 50:50 mobile phase mixture mixed with LC effluent for a total 0.6 mL/min flow rate. Flow-dependent parameters were: CUR = 35/ISV = 5500/TEM = 550/GS1 = 65/GS2 = 65/Horizontal probe position = 7/Vertical probe position = 0.5). […] Calibrators, quality control samples and experimental sample sequences consisted of single randomized experimental sample injections flanked by sets of blanks, and calibrators. A calibration curve was constructed by weighted (1/x^2) polynomial regression analysis of analyte concentration to analyte peak area using GraphPad Prism software (Ver 8.4.3).
(§4) All data sets were analyzed using Phoenix WinNonlin (Certara). A 2-compartment mammillary model was simultaneously fitted to all plasma concentrations obtained from intravenous, oral, and intraperitoneal administration of 29. The oral and intraperitoneal bioavailability was also estimated. Parameters were estimated using population modeling with quasi-random parameter estimation method (QRPEM). […]

[2] = Brain biodistribution study after IP dosing; type: in vivo, C57BL/6J mice; conditions: male, C57BL/6J, mouse, 2 mg/kg
Description: as §1
Brains were excised and sectioned at the sagittal plane. Half of the brain from each animal was homogenized (1:1, w/v) with phosphate buffered saline. […] Proteins were precipitated by addition of 80 µL of 0.1% formic acid. Samples were vortex mixed (10 s) and stored at − 20 °C for 20 min prior to centrifugation at 13,000×g for 15 min at 4 °C. The resulting supernatants were collected into amber HPLC vials fitted with 200 µL glass inserts and immediately analyzed for analyte content by LC/MS–MS.
as §2, §3, §4

C57BL/6J mice [3] = experiment: Hot plate assay, oxycodone-induced thermal antinociception; type: in vivo
C57BL/6J mice [4] = experiment: Locomotor activity assay, deficits caused by KOR agonist U50,488; type: in vivo
Description: These studies (in C57BL/6J mice from the Jackson Laboratory) focused on the effectiveness of 29 in preventing decreases in locomotor activity caused by the KOR agonist U50,488 (10 mg/kg, IP) over 90 min. This dose and duration of monitoring period was based on recently published studies. Mice were placed individually in rectangular transparent plastic cages (19.7 cm width × 41.3 cm length × 20.3 cm height) with bedding identical to that in the home cage. Each cage was in a photocell frame with an array of perpendicular photocell beams (SmartFrame; Kinder Scientific, Poway, CA). Beam breaks caused by the mouse were quantified through a computer interface. Mice were habituated to this apparatus for a 60-min session. Consecutive experiments in the same mice were separated by at least 72 h. Vehicle or 29 was injected 30 min prior to U50,488 (10 mg/kg). Immediately after the U50,488 injection, each mouse was placed in a locomotor activity cage for a 90-min period.
The locomotor activity data were analyzed as beam breaks over 15-min bins. Data were analyzed with 2-way repeated measures or mixed effects ANOVAs, followed by appropriate post-hoc tests (GraphPad Prism software).

[5] = male, C57BL/6J, mouse, IP, 2 mg/kg
[6] = male, C57BL/6J, mouse, IV, 2 mg/kg
[7] = male, C57BL/6J, mouse, PO, 5 mg/kg

## C=C1CC[C@@]2(OCCC)[C@H]3Cc4ccc(O)c5c4[C@@]2(CCN3CC2CC2)[C@H]1O5 [Compound 29]
[1]; 2-compartment model
  CL2: 174 mL/min/kg
  V2: 6.07 L/kg
[1]; 2-compartment model fitted to IV, PO and IP plasma concentrations
  V: 5.36 L/kg
[1]; 2-compartment model, IP 2 mg/kg, 2 mg/kg
  FIP (bioavailability following IP administration): 99.5%
[1]; 2-compartment model, intraperitoneal absorption
  Ka,ip: 7.53 h⁻¹
[1]; 2-compartment model, oral absorption
  Ka,po: 7.91 h⁻¹
[1]; IP dosing
  time of measurable plasma concentrations: at least 6 h
[1]; following IV and PO dosing
  time plasma concentrations were above the lower quantitation limit: 2 h
[1]; male, C57BL/6J, mouse, intraperitoneal, 2 mg/kg, mice, read-out: plasma half-life (converted)
  half-life: 54 min
[1]; male, C57BL/6J, mouse, intraperitoneal, 2-compartment model fitted to IV, PO and IP plasma concentrations
  clearance: 202 mL/min/kg
[1]; male, C57BL/6J, mouse, intraperitoneal, PO and IP administration
  Tmax: ≤ 10 min
[1]; male, C57BL/6J, mouse, intravenous, oral, intraperitoneal, mice, read-out: plasma half-life (converted)
  half-life: 36 to 60 min
[1]; male, C57BL/6J, mouse, ip, 2 mg/kg, 2-compartment model, IP 2 mg/kg, read-out: FIP (bioavailability following IP administration)
  bioavailability: ~100%
[1]; male, C57BL/6J, mouse, po, 5 mg/kg, 2-compartment model, PO 5 mg/kg, read-out: Fpo (oral bioavailability)
  bioavailability: ~6.6%
[1]; [5]
  Tmax: 7.2 min
  AUC: 0.397 µM·h
[1]; male, C57BL/6J, mouse, IP, 2 mg/kg, read-out: Apparent half-life, t½ (converted)
  half-life: 56.4 min
[1]; [6]
  Tmax: 4.8 min
  AUC: 0.207 µM·h
[1]; male, C57BL/6J, mouse, IV, 2 mg/kg, read-out: Apparent half-life, t½ (converted)
  half-life: 34.8 min
[1]; [7]
  Tmax: 6 min
  AUC: 0.064 µM·h
[1]; male, C57BL/6J, mouse, PO, 5 mg/kg, read-out: Apparent half-life, t½ (converted)
  half-life: 59.4 min
[2]; brain, ip, IP dosing, brain, mice, read-out: apparent terminal half-life in the brain
  half-life: ~80 min
[2]; brain, ip, IP dosing, brain, read-out: Tmax in brain (converted)
  Tmax: ~20 min
[2]; brain, ip, IP, brain, read-out: Apparent half-life, t½ (converted)
  half-life: 80.4 min
[2]; brain, ip, IP, brain, read-out: Tmax
  Tmax: 19.2 min
[2]; brain, ip, read-out: partition coefficient, Kp,brain
  Kp: 1.6
[2]; plasma, ip, IP dosing, plasma, read-out: apparent terminal half-life in plasma
  half-life: 55 min
[2]; IP, brain, NCA
  AUC: 0.634 µM·h
C57BL/6J mice [3]; 0.1 mg/kg IP
  duration of MOR antagonist action (lower bound): at least 240 min
  duration of action (upper bound): less than 24 h
C57BL/6J mice [3]; 29 0.1 mg/kg IP, 30 min before oxycodone 5.6 mg/kg IP
  prevention of oxycodone-induced antinociception: fully effective; also recorded: complete prevention
C57BL/6J mice [3]; 29 0.1 mg/kg IP, pretreatment 15, 30, 120 and 240 min before oxycodone 5.6 mg/kg, measured 15 min after oxycodone
  prevention of peak antinociceptive effects of oxycodone (time course): significantly prevent
C57BL/6J mice [3]; 29 0.01–0.1 mg/kg IP, 30 min before oxycodone 5.6 mg/kg IP
  prevention of oxycodone-induced antinociception (dose-dependence): dose-dependently; also recorded: dose-dependent prevention
C57BL/6J mice [3]; after IP injection, 0.1 mg/kg
  onset of antagonist action: ≤ 15 min
C57BL/6J mice [4]; 29 0.1 mg/kg IP, 30 min before U50,488 10 mg/kg
  blockade of locomotor effects of U50,488: ineffective; also recorded: did not cause any apparent blockade
C57BL/6J mice [4]; 29 1 mg/kg IP, 30 min before U50,488 10 mg/kg
  blockade of locomotor depressant effects of U50,488: did block the locomotor depressant effects; also recorded: able to prevent locomotor deficits
C57BL/6J mice [4]; 29 1 mg/kg alone, compared to a vehicle injection
  effect on locomotor activity alone: did not cause significant effects on locomotor activity

## COc1ccc2c3c1O[C@H]1C(=O)CC[C@@]4(O)[C@@H](C2)N(C)CC[C@]314 [Oxycodone, oxycodone, reference compound]
C57BL/6J mice [3]; oxycodone 5.6 mg/kg IP
  time of peak effects after injection: 15 min
C57BL/6J mice [3]; oxycodone 5.6 mg/kg IP, 30 min after vehicle pretreatment
  antinociceptive effect: near-maximal antinociceptive effect
